Our source for the IC50 values is patent publication US7842806B2, “Pyridopyrimidone derivatives, preparation thereof, therapeutic use thereof” (sanofi-aventis, priority 2006, dated 2010).

One experiment deals with MDA-MB231 cells. Nature of the experiment: MTS cell proliferation and viability test, MDA-MB231 breast cancer line. It counts as cell-based, human. Conditions: incubating for 72 hours, read-out: IC50 (concentration which results in a 50% loss of cell proliferation and viability). As for the experimental part:
[…]
(§1) The cell proliferation and viability were determined in a test using 3-(4,5-dimethylthiazol-2-yl)-5-(3-carboxymethoxyphenyl)-2-(4-sulfophenyl)-2H-tetrazolium (MTS) according to Fujishita T. et al., Oncology, 2003, 64 (4), 399-406. In this test, the mitochondrial ability of the living cells to convert MTS to a colored compound is measured after incubating for 72 hours a compound of formula (I) according to the invention. […]

The next experiment has as its system K562 cells. Briefly: MTS cell proliferation and viability test, K562 leukemia line. It counts as cell-based, human. The note with it: incubating for 72 hours, read-out: IC50 (concentration which results in a 50% loss of cell proliferation and viability). As for the experimental part:
[…]
as §1

Molecules are shown by their SMILES. Where two headings read alike, the source gives them in different places.

On to `Cn1c(=O)c(-c2c(Cl)cccc2Cl)cc2cnc(Nc3ccc4c(c3)COC4)nc21` [Example 2, 6-(2,6-dichlorophenyl)-2-[(1,3-dihydro-5-iso-benzofuranyl)amino]-8-methyl-8H-pyrido[2,3-d]pyrimidin-7-one], for which, in the experiment with MDA-MB231 cells, the IC50 turned out to be 10 nM.

For `Cn1c(=O)c(-c2c(Cl)cccc2Cl)cc2cnc(Nc3ccc4c(c3)OC(CN)O4)nc21` (racemic) [Example 1, (R/S)-2-[[2-(aminomethyl)-1,3-benzodioxol-5-yl]amino]-6-(2,6-dichlorophenyl)-8-methyl-8H-pyrido[2,3-d]pyrimidin-7-one], the IC50 in the experiment with K562 cells (Homo sapiens) came to 3 nM.

Consider `CNC(=O)C1COc2ccc(Nc3ncc4cc(-c5c(Cl)cccc5Cl)c(=O)n(C)c4n3)cc2O1` (racemic) [Example 8, (R/S)-N-methylamide of 7-[6-(2,6-dichlorophenyl)-8-methyl-7-oxo-7,8-dihydropyrido[2,3-d]pyrimidin-2-ylamino]-2,3-dihydrobenzo[1,4]dioxin-2-carboxylic acid], for which the results for the IC50 in the experiment with K562 cells and in the experiment with MDA-MB231 cells were 20.5 nM and 183 nM, respectively.
